Experimental data reported in patent US20260216280A1, “COMPOSITION FOR PREVENTING AND TREATING ISCHEMIC CEREBROVASCULAR DISEASE COMPRISING GINTONIN” (Dongguk University Industry-Academic Cooperation Foundation, priority 2022, published 2026).

System: HBMEC (Human Brain Microvascular Endothelial Cell)
Assay: Nitric oxide production in HBMEC, gintonin pretreatment before NOS inhibitor
Assay type: cell-based
Conditions: 100 uM synthase inhibitor, 1 h, vs DMSO only
Procedure: First of all, HBMEC (Human Brain Microvascular Endothelial Cell) or imHBMEC (immortalized Human Brain Microvascular Endothelial Cell) were cultured in an appropriate culture medium under air conditions of 37° C., 5% carbon dioxide and 95% relative humidity. When the cells reached 80 to 90% confluency (average ~2 days), 10 ug/mL of gintonin was first pretreated and incubated for 1 hour, and then, a nitric oxide synthase (NOS) inhibitor was treated and incubated for another hour, then, the effect of changes in nitric oxide (NO) production was investigated. Afterwards, the concentration of nitric oxide synthase inhibitor was treated at 100 and 300 uM.

SMILES: COC(=O)[C@@H](N)CCCNC(=N)N[N+](=O)[O-].Cl [synthase inhibitor]
- reduction of nitric oxide (relative production): about 20%
